Read-outs that look alike come from different tables or passages of the source.
System: histamine induced gastric acid secretion
Assay: Inhibition of histamine induced gastric acid secretion in the perfused rat stomach preparation
Type: in vivo
Settings: sodium pentobarbitone anaesthesia

Row | Molecule | ED50 | ED50 (read-out: ED50)
1 | CNC(=C[N+](=O)[O-])NCCCCCOc1cccc(CN2CCCCC2)c1 [5(b), N-[5-[3-(1-Piperidinylmethyl)phenoxy]pentyl]-N^1methyl-2-nitro-l,l-ethenediamine] | 0.027 mg/kg | 
2 | CC(=O)Nc1nc(NCCCCCOc2cccc(CN3CCCCC3)c2)n(C)n1 [Example 3] |  | 0.22 mg/kg
3 | 3-Phenylmethyl-5-[[2-[2-[3-(1-piperidinylmethyl)phenoxy] ethoxy]ethyl]amino]-1H-1,2,4-triazole [Example 4] | 0.17 mg/kg | 
4 | Cn1nc(CO)nc1NCCCCCOc1cccc(CN2CCCCC2)c1 [2(a)] |  | 0.2 mg/kg
5 | Cn1nc(N)nc1NCCCCCOc1cccc(CN2CCCCC2)c1 [1(b), 1-methyl-N^5-[5-[3-(1-piperidinyl-methyl)phenoxy]pentyl]-1H-1,2,4-triazole-3,5-diamine] |  | 0.19 mg/kg

From patent publication EP0029306A1, “Aminoalkyl compounds, their production and pharmaceutical compositions containing them” (GLAXO GROUP LIMITED, priority 1979, dated 1981)
